Laboratory results taken from US20240287076A1, “COMPOUNDS FOR TARGETING DEGRADATION OF BRUTON'S TYROSINE KINASE” (BIOGEN MA INC., priority 2021, published 2024).

target: T1, BTK (Homo sapiens, UniProt Q06187); assay: BTK degradation assay using the HiBiT Method (Nano-Glo HiBiT Lytic Assay, GM01501.3 cells); format: cell-based; conditions: HiBiT Degradation on GM01501.3 BTK @ 6 hours
T1 construct: The GM01501.3 cell line endogenously expresses BTK with a HiBiT fusion tag via CRISPR knock-in at its C-terminal region; endogenous in cells; host or cells: GM01501.3 (GM01501 cells engineered by CRISPR knock-in of HiBiT at the BTK locus)
T1 sequence (Q06187 whole entry, the tested form may be a part): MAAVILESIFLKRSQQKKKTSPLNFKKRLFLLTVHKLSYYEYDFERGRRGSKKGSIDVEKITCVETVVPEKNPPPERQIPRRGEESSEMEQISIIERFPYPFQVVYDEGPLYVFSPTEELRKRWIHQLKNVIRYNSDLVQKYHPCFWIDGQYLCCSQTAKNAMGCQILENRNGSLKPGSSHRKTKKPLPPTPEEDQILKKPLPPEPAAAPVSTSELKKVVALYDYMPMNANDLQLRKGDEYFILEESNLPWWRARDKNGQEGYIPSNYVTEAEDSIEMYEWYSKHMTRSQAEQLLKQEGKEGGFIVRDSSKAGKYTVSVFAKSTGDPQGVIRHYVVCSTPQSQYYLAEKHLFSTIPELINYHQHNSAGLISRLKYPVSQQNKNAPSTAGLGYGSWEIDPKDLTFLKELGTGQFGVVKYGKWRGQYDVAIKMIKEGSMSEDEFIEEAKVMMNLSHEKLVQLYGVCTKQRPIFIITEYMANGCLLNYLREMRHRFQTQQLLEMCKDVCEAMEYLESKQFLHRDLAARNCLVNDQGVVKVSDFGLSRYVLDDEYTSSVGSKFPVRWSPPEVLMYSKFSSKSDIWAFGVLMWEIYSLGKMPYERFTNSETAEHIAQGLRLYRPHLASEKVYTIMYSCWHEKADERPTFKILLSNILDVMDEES
Outline: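 CRISPR knock-in GM01501.3 cells expressing endogenous BTK with C-terminal HiBiT tag, treated 6 h at 37 °C with compounds, 11-point half-log titration from 10 μM top, duplicates. Remaining BTK quantified by Nano-Glo HiBiT lytic luminescence versus DMSO controls; DC50 reported.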

Row | Compound | DC50
1 | Cc1cc(-c2ncnn3cc(N4CCN(C(=O)CCC5CCCN5C(=O)c5ccc(OC6CCC(=O)NC6=O)cc5)CC4)cc23)ccc1CNC(=O)c1noc(C(C)(C)C)n1 (stereo not drawn) [Example 181, 5-(tert-butyl)-N-(4-(6-(4-(3-(1-(4-((2,6-dioxopiperidin-3-yl)oxy)benzoyl)pyrrolidin-2-y1)propanoyl)piperazin-1-yl)pyrrolo[2,1-f][1,2,4]triazin-4-yl)-2-methylbenzyl)-1,2,4-oxadiazole-3-carboxamide] | < 100 nM
2 | CC(C)(C)c1nc(C(=O)NCc2ccc(-c3ncnn4cc(CCCCN5CCC(n6ccc(NC7CCC(=O)NC7=O)n6)CC5)cc34)cc2F)no1 (stereo not drawn) [Example 137, 5-tert-butyl-N-[[4-[6-[4-[4-[3-[(2,6-dioxo-3-piperidyl)amino]pyrazol-1-yl]-1-piperidyl]butyl]pyrrolo[2,1-f][1,2,4]triazin-4-yl]-2-fluoro-phenyl]methyl]-1,2,4-oxadiazole-3-carboxamide] | < 100 nM
3 | Cc1cc(-c2ncnn3cc(C#CCCN4CCC(c5ccc(C6CCC(=O)NC6=O)cc5)CC4)cc23)ccc1CNC(=O)c1noc(C(C)(C)C)n1 (stereo not drawn) [Example 291, 5-(tert-butyl)-N-(4-(6-(4-(4-(4-(2,6-dioxopiperidin-3-yl)phenyl)piperidin-1-yl)but-1-yn-1-yl)pyrrolo[2,1-f] [1,2,4]triazin-4-yl)-2-methylbenzyl)-1,2,4-oxadiazole-3-carboxamide] | 100 to 500 nM
4 | Cn1nc(N2CCC(=O)NC2=O)c2ccc(C3CCN(CCOc4ccc(-c5cc6c(-c7ccc(CNC(=O)c8noc(C(C)(C)C)n8)c(F)c7)ncnn6c5)cc4)CC3)cc21 [Example 109] | < 100 nM
5 | Cc1cc(-c2ncnn3cc(CCN4CCC(c5cc6c(cc5F)c(N5CCC(=O)NC5=O)nn6C)CC4)cc23)ccc1CNC(=O)c1noc(C(C)(C)C)n1 [Example 256, 5-(tert-butyl)-N-(4-(6-(2-(4-(3-(2,4-dioxotetrahydropyrimidin-1(2H)-yl)-5-fluoro-1-methyl-1H-indazol-6-yl)piperidin-1-yl)ethyl)pyrrolo[2,1-f][1,2,4]triazin-4-yl)-2-methylbenzyl)-1,2,4-oxadiazole-3-carboxamide] | < 100 nM
6 | Cc1cc(-c2ncnn3cc(-c4cccc(-n5cc(CN6CCC(c7ccc(C8CCC(=O)NC8=O)cc7)CC6)c(C)n5)c4)cc23)ccc1CNC(=O)c1noc(C(C)(C)C)n1 (stereo not drawn) [Example 205, 5-(tert-butyl)-N-(4-(6-(3-(4-((4-(4-(2,6-dioxopiperidin-3-yl)phenyl)piperidin-1-yl)methyl)-3-methyl-1H-pyrazol-1-yl)phenyl)pyrrolo[2,1-f][1,2,4]triazin-4-yl)-2-methylbenzyl)-1,2,4-oxadiazole-3-carboxamide] | < 100 nM
7 | Cc1cc(-c2ncnn3cc(-c4cccc(CN5CCC(c6ccc(C7CCC(=O)NC7=O)cc6)CC5)n4)cc23)ccc1CNC(=O)c1noc(C(C)(C)C)n1 (stereo not drawn) [Example 214, 5-(tert-butyl)-N-(4-(6-(6-((4-(4-(2,6-dioxopiperidin-3-yl)phenyl)piperidin-1-yl)methyl)pyridin-2-yl)pyrrolo [2,1-f][1,2,4]triazin-4-yl)-2-methylbenzyl)-1,2,4-oxadiazole-3-carboxamide] | < 100 nM
8 | CC(C)(C)c1nc(C(=O)NCc2ccc(-c3ncnn4cc(CCCCN5CCC(c6c(F)cc(C7CCC(=O)NC7=O)cc6F)CC5)cc34)cc2F)no1 (stereo not drawn) [Example 136, 5-tert-butyl-N-[[4-[6-[4-[4-[4-(2,6-dioxo-3-piperidyl)-2,6-difluoro-phenyl]-1-piperidyl]butyl]pyrrolo[2,1-f][1,2,4]triazin-4-yl]-2-fluoro-phenyl]methyl]-1,2,4-oxadiazole-3-carboxamide] | < 100 nM
9 | Cc1cc(-c2ncnn3cc(N4CCN(C(=O)c5ccccc5CNC(=O)c5ccc(OC6CCC(=O)NC6=O)cc5)CC4)cc23)ccc1CNC(=O)c1noc(C(C)(C)C)n1 (stereo not drawn) [Example 193, 5-(tert-butyl)-N-(4-(6-(4-(2-((4-((2,6-dioxopiperidin-3-yl)oxy)benzamido)methyl)benzoyl)piperazin-1-yl)pyrrolo[2,1-f][1,2,4]triazin-4-yl)-2-methylbenzyl)-1,2,4-oxadiazole-3-carboxamide] | < 100 nM

Continued, values first:

Row | DC50 | Compound
10 | < 100 nM | Cc1cc(-c2ncnn3cc(-c4ccc(C(=O)NCCc5cccc(NC6CCC(=O)NC6=O)c5)cc4)cc23)ccc1CNC(=O)c1noc(C(C)(C)C)n1 (stereo not drawn) [Example 196]
11 | < 100 nM | Cc1cc(-c2ncnn3cc(-c4ccc(CN5CCC(c6ccc(NC7CCC(=O)NC7=O)cc6)CC5)cc4)cc23)ccc1CNC(=O)c1ncc(C(C)(C)C)o1 (stereo not drawn) [Example 86, 5-tert-butyl-N-[[4-[6-[4-[[4-[4-[(2,6-dioxo-3-piperidyl)amino]phenyl]-1-piperidyl]methyl]phenyl]pyrrolo[2,1-f][1,2,4]triazin-4-yl]-2-methyl-phenyl]methyl]oxazole-2-carboxamide]
12 | < 100 nM | Cc1cc(-c2ncnn3cc(-c4ccc(CN(C)CCCc5ccc(NC6CCC(=O)NC6=O)cc5)cc4)cc23)ccc1CNC(=O)c1noc(C(C)(C)C)n1 (stereo not drawn) [Example 11, 5-tert-butyl-N-[[4-[6-[4-[[3-[4-[(2,6-dioxo-3-piperidyl)amino]phenyl]propyl-methyl-amino]methyl]phenyl]pyrrolo[2,1-f][1,2,4]triazin-4-yl]-2-methyl-phenyl]methyl]-1,2,4-oxadiazole-3-carboxamide]
13 | 100 to 500 nM | Cc1cc(-c2ncnn3cc(-c4ccc(CN(C)CC(F)(F)Cc5ccc(NC6CCC(=O)NC6=O)cc5)cc4)cc23)ccc1CNC(=O)c1noc(C(C)(C)C)n1 (stereo not drawn) [Example 150, 5-tert-butyl-N-[[4-[6-[4-[[[3-[4-[(2,6-dioxo-3-piperidyl)amino]phenyl]-2,2-difluoro-propyl]-methyl-amino]methyl]phenyl]pyrrolo[2,1-f][1,2,4]triazin-4-yl]-2-methyl-phenyl]methyl]-1,2,4-oxadiazole-3-carboxamide]
14 | < 100 nM | Cc1cc(-c2ncnn3cc(-c4ccc(CN5CCC(c6ccc(NC7CCC(=O)NC7=O)cc6)CC5)cc4)cc23)ccc1CNC(=O)COCC(C)(C)C (stereo not drawn) [Example 70, 2-(2,2-dimethylpropoxy)-N-[[4-[6-[4-[[4-[4-[(2,6-dioxo-3-piperidyl)amino]phenyl]-1-piperidyl]methyl]phenyl]pyrrolo[2,1-f][1,2,4]triazin-4-yl]-2-methyl-phenyl]methyl]acetamide]
15 | < 100 nM | Cc1cc(-c2ncnn3cc(-c4ccc(OCCN5CCC(c6ccc(C7CCC(=O)NC7=O)cc6)CC5)cc4)cc23)ccc1CNC(=O)c1noc(C(C)(C)C)n1 (stereo not drawn) [Example 104, 5-tert-butyl-N-[[4-[6-[4-[2-[4-[4-(2,6-dioxo-3-piperidyl)phenyl]-1-piperidyl]ethoxy]phenyl]pyrrolo[2,1-f][1,2,4]triazin-4-yl]-2-methyl-phenyl]methyl]-1,2,4-oxadiazole-3-carboxamide]
16 | < 100 nM | Cc1cc(-c2ncnn3cc(-c4ccc(CN5CCC(c6ccc(NC7CCC(=O)NC7=O)cc6)CC5)cc4)cc23)ccc1CNC(=O)c1cnc(C(C)(C)C)cn1 (stereo not drawn) [Example 82, 5-tert-butyl-N-[[4-[6-[4-[[4-[4-[(2,6-dioxo-3-piperidyl)amino]phenyl]-1-piperidyl]methyl]phenyl]pyrrolo[2,1-f][1,2,4]triazin-4-yl]-2-methyl-phenyl]methyl]pyrazine-2-carboxamide]
17 | < 100 nM | Cc1cc(-c2ncnn3cc(-c4ccc5c(c4)CN(CCCc4ccc(NC6CCC(=O)NC6=O)cc4)CC5)cc23)ccc1CNC(=O)c1noc(C(C)(C)C)n1 (stereo not drawn) [Example 59, 5-tert-butyl-N-[[4-[6-[2-[3-[4-[(2,6-dioxo-3-piperidyl)amino]phenyl]propyl]-3,4-dihydro-1H-isoquinolin-7-yl]pyrrolo[2,1-f][1,2,4]triazin-4-yl]-2-methyl-phenyl]methyl]-1,2,4-oxadiazole-3-carboxamide]
18 | 100 to 500 nM | CC(C)(C)c1nc(C(=O)NCc2ccc(-c3ncnn4cc(-c5ccc(CN6CC[C@H](c7ccc(NC8CCC(=O)NC8=O)cc7)CC67CC7)cc5)cc34)cc2F)no1 (stereo partly drawn) [Example 39, 5-tert-butyl-N-[[4-[6-[4-[[(7S)-7-[4-[(2,6-dioxo-3-piperidyl)amino]phenyl]-4-azaspiro[2.5]octan-4-yl]methyl]phenyl]pyrrolo[2,1-f][1,2,4]triazin-4-yl]-2-fluoro-phenyl]methyl]-1,2,4-oxadiazole-3-carboxamide]
19 | < 100 nM | Cc1cc(-c2ncnn3cc(COCCN4CCC(c5ccc(NC6CCC(=O)NC6=O)cc5)CC4)cc23)ccc1CNC(=O)c1noc(C(C)(C)C)n1 (stereo not drawn) [Example 143, 5-tert-butyl-N-[[4-[6-[2-[4-[4-[(2,6-dioxo-3-piperidyl)amino]phenyl]-1-piperidyl]ethoxymethyl]pyrrolo[2,1-f][1,2,4]triazin-4-yl]-2-methyl-phenyl]methyl]-1,2,4-oxadiazole-3-carboxamide]
20 | < 100 nM | Cc1cc(-c2ncnn3cc(-c4ccc(CN5CCC(c6ccc(NC7CCC(=O)NC7=O)cc6)CC5)c(Cl)c4)cc23)ccc1CNC(=O)c1noc(C(C)(C)C)n1 (stereo not drawn) [Example 15, 5-tert-butyl-N-[[4-[6-[3-chloro-4-[[4-[4-[(2,6-dioxo-3-piperidyl)amino]phenyl]-1-piperidyl]methyl]phenyl]pyrrolo[2,1-f][1,2,4]triazin-4-yl]-2-methyl-phenyl]methyl]-1,2,4-oxadiazole-3-carboxamide]
21 | 100 to 500 nM | Cc1cc(-c2ncnn3cc(CCCCc4ccc(-c5ccc(C6CCC(=O)NC6=O)cc5)cc4)cc23)ccc1CNC(=O)c1noc(C(C)(C)C)n1 (stereo not drawn) [Example 151, 5-tert-butyl-N-[[4-[6-[4-[4-[4-(2,6-dioxo-3-piperidyl)phenyl]phenyl]butyl]pyrrolo[2,1-f][1,2,4]triazin-4-yl]-2-methyl-phenyl]methyl]-1,2,4-oxadiazole-3-carboxamide]
